These results are taken from ChEMBL document CHEMBL1147972, “1,3-disubstituted 4-aminopiperidines as useful tools in the optimization of the 2-aminobenzo[a]quinolizine dipeptidyl peptidase IV inhibitors” (Bioorg Med Chem Lett, 2007).

Each structure is given as a SMILES string. Some results are limits rather than exact numbers.

Data set [1] is described as follows: Solubility of the compound. The class given is physicochemical.
The next data set deals with Cytochrome P450 2D6 (Homo sapiens, UniProt P10635). Description: Inhibition of CYP2D6. The class given is ADME.
Chain of Cytochrome P450 2D6 (P10635 whole entry): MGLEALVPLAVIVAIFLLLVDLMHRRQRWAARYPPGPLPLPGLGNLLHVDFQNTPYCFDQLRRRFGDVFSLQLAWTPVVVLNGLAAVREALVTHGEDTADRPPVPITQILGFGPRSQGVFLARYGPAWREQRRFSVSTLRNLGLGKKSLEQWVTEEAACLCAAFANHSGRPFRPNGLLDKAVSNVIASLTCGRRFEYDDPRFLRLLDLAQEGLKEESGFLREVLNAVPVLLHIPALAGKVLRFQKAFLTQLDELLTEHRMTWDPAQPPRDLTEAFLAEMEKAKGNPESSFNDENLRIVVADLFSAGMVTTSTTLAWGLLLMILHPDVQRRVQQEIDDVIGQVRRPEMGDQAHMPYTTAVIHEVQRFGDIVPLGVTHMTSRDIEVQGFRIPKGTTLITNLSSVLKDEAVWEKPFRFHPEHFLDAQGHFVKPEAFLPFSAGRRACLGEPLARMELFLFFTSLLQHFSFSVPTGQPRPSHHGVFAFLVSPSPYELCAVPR
Data set [2] in a line: Permeability coefficient across PAMPA. The class given is ADME. As to conditions: read-out: permeability.
The nature of data set [3]: Distribution coefficient, log D at pH 7.4. The format is physicochemical. As to conditions: octanol/water.
A further data set concerns the target Cytochrome P450 2C9 (Homo sapiens, UniProt P11712). Description: Inhibition of CYP2C9. The class given is ADME.
Another data set has as its system Rattus norvegicus. Briefly: Reduction in glucose level in fa/fa rat after oral glucose tolerance test at 0.3 mg/kg administered 2 hrs before glucose challenge. The class given is functional. Also on record: scale not given: the % may be the effect or the level left.
Data set [4] relates to Liver microsomes. Briefly: Clearance in human liver microsome. The format is ADME.
Data set [5] has as its system Liver microsomes. Description: Clearance in rat liver microsome. The format is ADME.
A further data set concerns the target Cytochrome P450 3A4 (Homo sapiens, UniProt P08684). Briefly: Inhibition of CYP3A4. The format is ADME.

Chain of Cytochrome P450 3A4 (P08684 whole entry): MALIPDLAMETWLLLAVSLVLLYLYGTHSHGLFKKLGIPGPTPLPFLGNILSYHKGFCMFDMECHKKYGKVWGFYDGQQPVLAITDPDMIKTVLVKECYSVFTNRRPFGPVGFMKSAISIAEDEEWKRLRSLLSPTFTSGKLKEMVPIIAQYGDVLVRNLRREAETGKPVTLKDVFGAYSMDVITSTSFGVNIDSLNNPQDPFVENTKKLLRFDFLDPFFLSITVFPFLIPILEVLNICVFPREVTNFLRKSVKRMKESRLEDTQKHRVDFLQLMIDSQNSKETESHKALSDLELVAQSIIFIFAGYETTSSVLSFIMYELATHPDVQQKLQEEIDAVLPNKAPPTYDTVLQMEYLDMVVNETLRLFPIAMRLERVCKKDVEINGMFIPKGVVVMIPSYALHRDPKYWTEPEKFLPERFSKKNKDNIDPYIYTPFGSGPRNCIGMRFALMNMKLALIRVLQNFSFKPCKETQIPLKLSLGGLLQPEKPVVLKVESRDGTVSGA
Chain of Cytochrome P450 2C9 (P11712 whole entry): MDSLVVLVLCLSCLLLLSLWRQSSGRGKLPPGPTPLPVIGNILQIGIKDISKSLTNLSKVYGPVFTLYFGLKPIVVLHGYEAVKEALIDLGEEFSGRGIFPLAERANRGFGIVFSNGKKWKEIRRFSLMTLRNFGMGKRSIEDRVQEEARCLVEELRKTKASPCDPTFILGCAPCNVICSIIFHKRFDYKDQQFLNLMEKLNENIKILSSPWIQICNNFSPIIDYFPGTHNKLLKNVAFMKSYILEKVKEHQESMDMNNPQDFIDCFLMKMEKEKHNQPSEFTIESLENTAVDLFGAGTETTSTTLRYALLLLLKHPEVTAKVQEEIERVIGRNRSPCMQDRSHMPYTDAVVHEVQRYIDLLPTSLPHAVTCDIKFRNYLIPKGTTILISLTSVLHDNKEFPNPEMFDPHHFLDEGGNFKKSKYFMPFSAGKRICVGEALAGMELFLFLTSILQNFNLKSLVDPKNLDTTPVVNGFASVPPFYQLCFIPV

In [1], `COc1cc2c(cc1OC)[C@@H]1C[C@H](N)[C@@H](c3cccc(C)c3)CN1CC2` came in with a Solubility above 469 µg/mL. Also, the values for the IC50 on Cytochrome P450 2D6, against Cytochrome P450 2C9 and against Cytochrome P450 3A4 were 11 µM, 15 µM and above 50 µM, respectively. The Papp in data set [2] was determined as 3.4 ×10⁻⁶ cm/s. In data set [3], this compound returned a logD of 1.3. The Activity in the data set with Rattus norvegicus is reported as -41%. In addition, the clearance with Liver microsomes [4] came out at 3 µL/min/mg; in the data set on Liver microsomes [5], 1 µL/min/mg.

Consider `CCCC[C@H]1CN2CCc3cc(OC)c(OC)cc3[C@@H]2C[C@@H]1N`, for which the Solubility in data set [1] is above 414 µg/mL. Also, the IC50 at Cytochrome P450 2D6, against Cytochrome P450 2C9 and against Cytochrome P450 3A4 was above 50 µM each time. For the same compound, the Papp in data set [2] turned out to be 2.5 ×10⁻⁶ cm/s. The compound further had a logD in data set [3] of 0.8. Further, in the data set with Rattus norvegicus, the Activity is on record as -16%. Also, the clearance amounted to 0 µL/min/mg in the data set on Liver microsomes [4] and 4.7 µL/min/mg in the data set on Liver microsomes [5].
